Experimental data taken from ChEMBL document CHEMBL1123410, “Selective thromboxane synthetase inhibitors. 2. 3-(1H-imidazol-1-ylmethyl)-2-methyl-1H-indole-1-propanoic acid and analogues” (J Med Chem, 1986).

Key:
Thromboxane-A synthase = molecular target: T1, Thromboxane-A synthase (Homo sapiens, UniProt P24557); experiment: Inhibition of TXA2 synthetase from human platelets
T1 sequence (P24557 whole entry): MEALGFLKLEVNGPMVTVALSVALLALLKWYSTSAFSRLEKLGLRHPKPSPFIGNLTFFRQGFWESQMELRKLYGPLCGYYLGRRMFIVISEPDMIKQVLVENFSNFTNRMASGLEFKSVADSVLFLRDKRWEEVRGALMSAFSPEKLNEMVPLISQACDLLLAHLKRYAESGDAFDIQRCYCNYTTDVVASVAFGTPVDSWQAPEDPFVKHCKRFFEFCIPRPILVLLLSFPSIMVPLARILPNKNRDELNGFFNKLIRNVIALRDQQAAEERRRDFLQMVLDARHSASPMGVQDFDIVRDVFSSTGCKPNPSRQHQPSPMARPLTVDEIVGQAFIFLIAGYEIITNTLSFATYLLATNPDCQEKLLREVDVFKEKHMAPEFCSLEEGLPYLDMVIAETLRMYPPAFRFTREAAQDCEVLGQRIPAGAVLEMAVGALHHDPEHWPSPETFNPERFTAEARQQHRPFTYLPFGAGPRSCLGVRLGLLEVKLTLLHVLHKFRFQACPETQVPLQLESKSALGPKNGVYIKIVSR

[1] = molecular target: T2, Cytochrome P450 11B1, mitochondrial (Rattus norvegicus, UniProt P15393); experiment: Inhibition of 11 beta-hydroxylase from rat adrenal gland; format: tissue-based
T2 sequence (P15393 whole entry): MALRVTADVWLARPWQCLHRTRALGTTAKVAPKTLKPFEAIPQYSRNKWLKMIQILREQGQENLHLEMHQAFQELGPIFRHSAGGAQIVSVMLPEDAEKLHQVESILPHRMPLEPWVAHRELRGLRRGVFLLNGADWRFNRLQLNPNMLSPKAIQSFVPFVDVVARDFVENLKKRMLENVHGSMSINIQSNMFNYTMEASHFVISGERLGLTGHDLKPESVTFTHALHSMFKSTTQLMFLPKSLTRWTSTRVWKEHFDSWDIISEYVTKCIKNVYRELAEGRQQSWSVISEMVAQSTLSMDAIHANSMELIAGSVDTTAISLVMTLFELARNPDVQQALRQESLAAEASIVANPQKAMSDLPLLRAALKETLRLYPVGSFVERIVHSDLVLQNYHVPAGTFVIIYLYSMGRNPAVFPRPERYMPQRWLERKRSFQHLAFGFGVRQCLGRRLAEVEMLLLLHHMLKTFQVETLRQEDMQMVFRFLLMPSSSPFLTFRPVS

[2] = molecular target: T3, Prostaglandin G/H synthase (cyclooxygenase) (Ovis aries, UniProt P05979+P79208); experiment: Inhibition of Prostaglandin G/H synthase from ram seminal vesicle microsomes
T3 sequence (P05979 whole entry): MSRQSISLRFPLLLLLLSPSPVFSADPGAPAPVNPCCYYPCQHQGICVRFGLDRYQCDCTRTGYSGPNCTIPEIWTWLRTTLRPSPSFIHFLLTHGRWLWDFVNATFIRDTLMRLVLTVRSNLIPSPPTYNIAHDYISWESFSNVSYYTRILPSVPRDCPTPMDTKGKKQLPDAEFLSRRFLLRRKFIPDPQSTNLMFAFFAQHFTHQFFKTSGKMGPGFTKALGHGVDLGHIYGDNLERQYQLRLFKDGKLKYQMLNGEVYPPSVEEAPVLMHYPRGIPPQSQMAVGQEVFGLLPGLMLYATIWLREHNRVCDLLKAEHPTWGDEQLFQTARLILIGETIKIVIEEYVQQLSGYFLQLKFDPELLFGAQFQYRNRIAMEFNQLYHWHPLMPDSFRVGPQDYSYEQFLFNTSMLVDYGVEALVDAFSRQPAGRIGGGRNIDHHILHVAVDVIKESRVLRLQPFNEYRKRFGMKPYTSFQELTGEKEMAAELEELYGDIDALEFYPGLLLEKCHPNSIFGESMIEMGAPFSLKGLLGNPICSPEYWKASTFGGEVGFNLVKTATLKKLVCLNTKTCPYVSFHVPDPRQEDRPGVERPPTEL
T3 sequence (P79208 whole entry): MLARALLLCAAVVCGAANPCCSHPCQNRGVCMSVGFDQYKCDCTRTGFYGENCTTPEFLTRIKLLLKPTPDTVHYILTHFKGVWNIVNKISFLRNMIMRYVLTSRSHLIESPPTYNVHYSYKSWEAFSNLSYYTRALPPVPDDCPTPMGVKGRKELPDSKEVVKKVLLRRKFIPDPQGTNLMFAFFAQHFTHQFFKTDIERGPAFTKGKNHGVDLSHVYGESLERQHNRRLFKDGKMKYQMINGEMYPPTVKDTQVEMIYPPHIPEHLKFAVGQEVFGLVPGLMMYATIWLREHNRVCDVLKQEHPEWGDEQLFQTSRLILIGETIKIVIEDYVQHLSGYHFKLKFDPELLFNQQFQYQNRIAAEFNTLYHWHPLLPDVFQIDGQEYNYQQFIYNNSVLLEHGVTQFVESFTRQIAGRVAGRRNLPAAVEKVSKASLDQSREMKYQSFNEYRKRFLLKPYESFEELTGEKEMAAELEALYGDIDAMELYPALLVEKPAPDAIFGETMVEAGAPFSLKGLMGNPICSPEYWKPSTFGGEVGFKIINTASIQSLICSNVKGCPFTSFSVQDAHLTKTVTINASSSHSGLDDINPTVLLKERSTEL

IC50 (Thromboxane-A synthase) [µM] | IC50 [1] [µM] | IC50 [2] [M] | Structure (SMILES)
0.0082 | > 10 | – | CC(C)c1c(Cn2ccnc2)c2ccccc2n1CCC(=O)O
0.019 | > 10 | > 0.0001 | O=C(O)CCn1cc(Cn2ccnc2)c2ccccc21
0.043 | – | – | COc1ccc2c(c1)c(Cn1ccnc1)cn2CCC(=O)O
4.6 | – | – | FC(F)(F)c1ccc2c(Cn3ccnc3)c[nH]c2c1
0.0084 | 10 | > 0.0001 | CCn1cc(Cn2ccnc2)c2ccccc21
3 | – | – | Clc1ccc2[nH]cc(Cn3ccnc3)c2c1
0.0049 | – | – | O=C(O)CCn1c(C2CC2)c(Cn2ccnc2)c2ccccc21
0.025 | 10 | > 0.001 | c1ccc2c(Cn3ccnc3)c[nH]c2c1
0.028 | > 100 | > 0.0001 | Cc1c(Cn2ccnc2)c2ccccc2n1CCC(=O)O [DAZMEGREL]
– | > 100 | – | O=C(O)c1ccc(OCCn2ccnc2)cc1 [DAZOXIBEN]
0.03 | – | > 0.0001 | O=C(O)Cn1cc(Cn2ccnc2)c2ccccc21
– | – | > 0.0001 | CC(C)c1[nH]c2ccccc2c1Cn1ccnc1
0.021 | – | – | O=C(O)CCn1cc(Cn2ccnc2)c2cc(Cl)ccc21
0.07 | – | – | Cc1c(Cn2ccnc2)c2ccccc2n1/C=C/C(=O)O
0.042 | – | – | Cc1ccc2c(c1)c(Cn1ccnc1)cn2CCC(=O)O
0.01 | – | – | O=C(O)CCn1cc(Cn2ccnc2)c2ccc(C(F)(F)F)cc21
0.012 | – | – | O=C(O)CCn1cc(Cn2ccnc2)c2cc(Br)ccc21
0.082 | – | – | CN(C)c1ccc2c(c1)c(Cn1ccnc1)cn2CCC(=O)O
